Data reported in patent US11033539B2, “Compounds of formulas (VII), (VIII), (IX), (XI), (XII), (XIII), and (XIV) as muscarinic receptor 4(M4) antagonists for treating neurological diseases” (Neurocrine Biosciences, Inc., priority 2015, dated 2021).

Legend:
human M5 receptor = human M5 receptor (Homo sapiens (Human), UniProt P08912); assay: Radioligand (tritiated N-methylscopolamine) binding assay, M5; settings: CHO cell membranes expressing human M5; 1.5 nM tritiated N-methylscopolamine; 90 min, 37° C.; read-out: Ki against M5 receptor (Table 21, M5)
Experimental: (§1) Binding affinity (Ki) of compounds was measured by inhibition of radioligand binding to membranes from CHO cells expressing human M1, M2, M3, M4 and M5 receptors. Membranes were prepared by nitrogen cavitation and differential centrifugation as previously described (Hoare et al., Mol. Pharmacol. 2003 March; 63(3): 751-65). The radioligand employed was tritiated N-methylscopolamine, used at a concentration of 1.5 nM. A dose-response of twelve concentrations of compound was used, ranging from 10 μM to […]. The assay buffer was 50 mM HEPES, 100 mM NaCl, 5 mM MgCl2, 1 mM ethylenediaminetetraacetic acid, pH-adjusted to pH 7.4. Membranes, radioligand and compound were incubated together for 90 minutes at 37° C., in a total volume of 150 μl in a 96-well plate. Receptor-bound radioligand was then collected by harvesting the assay over glass fiber filters pretreated with polyethylenimine to trap the cell membranes, using rapid vacuum filtration. Harvesting and radioactivity counting was conducted as previously described (see, e.g., Hoare et al., Mol. Pharmacol. 2003 63(3):751-65); Erratum at Mol. Pharmacol. 2005 July; 68(1): 260).

human M2 receptor = human M2 receptor (Homo sapiens (Human), UniProt P08172); assay: Radioligand (tritiated N-methylscopolamine) binding assay, M2; settings: CHO cell membranes expressing human M2; 1.5 nM tritiated N-methylscopolamine; 90 min, 37° C.; read-out: Ki against M2 receptor (Table 21, M2)
Experimental: as §1

human M1 receptor = human M1 receptor (Homo sapiens (Human), UniProt P11229); assay: Radioligand (tritiated N-methylscopolamine) binding assay, M1; settings: CHO cell membranes expressing human M1; 1.5 nM tritiated N-methylscopolamine; 90 min, 37° C.; read-out: Ki against M1 receptor (Table 21, M1)
Experimental: as §1

human M3 receptor = human M3 receptor (Homo sapiens (Human), UniProt P20309); assay: Radioligand (tritiated N-methylscopolamine) binding assay, M3; settings: CHO cell membranes expressing human M3; 1.5 nM tritiated N-methylscopolamine; 90 min, 37° C.; read-out: Ki against M3 receptor (Table 21, M3)
Experimental: as §1

human M4 receptor = human M4 receptor (Homo sapiens (Human), UniProt P08173); assay: Radioligand (tritiated N-methylscopolamine) binding assay, M4; settings: Ki against the M4 receptor; membranes from CHO cells expressing human M4; tritiated N-methylscopolamine 1.5 nM; read-out: Ki
Method in brief: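 Ki values come from displacement of 1.5 nM radioligand from membranes of receptor-expressing CHO cells, with filter-trapped radioactivity counted after rapid vacuum filtration. Twelve compound concentrations (10 μM to […]) were incubated for 90 min at 37 °C at pH 7.4.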

human M3 receptor, sequence (P20309 whole entry): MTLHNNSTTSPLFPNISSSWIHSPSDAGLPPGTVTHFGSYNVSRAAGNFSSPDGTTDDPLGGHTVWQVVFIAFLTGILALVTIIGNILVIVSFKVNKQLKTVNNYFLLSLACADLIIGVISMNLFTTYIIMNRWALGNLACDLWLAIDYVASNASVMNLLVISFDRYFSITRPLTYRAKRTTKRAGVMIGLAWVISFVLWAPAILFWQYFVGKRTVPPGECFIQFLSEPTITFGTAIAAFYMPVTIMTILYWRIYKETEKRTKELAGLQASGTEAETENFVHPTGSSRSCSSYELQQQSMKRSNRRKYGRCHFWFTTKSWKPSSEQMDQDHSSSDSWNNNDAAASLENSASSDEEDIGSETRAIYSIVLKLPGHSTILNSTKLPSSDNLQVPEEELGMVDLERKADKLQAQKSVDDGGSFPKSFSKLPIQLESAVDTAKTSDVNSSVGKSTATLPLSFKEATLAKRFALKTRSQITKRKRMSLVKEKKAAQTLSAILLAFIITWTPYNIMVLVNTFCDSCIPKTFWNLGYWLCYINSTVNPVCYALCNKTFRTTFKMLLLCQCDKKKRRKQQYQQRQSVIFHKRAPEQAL
human M2 receptor, sequence (P08172 whole entry): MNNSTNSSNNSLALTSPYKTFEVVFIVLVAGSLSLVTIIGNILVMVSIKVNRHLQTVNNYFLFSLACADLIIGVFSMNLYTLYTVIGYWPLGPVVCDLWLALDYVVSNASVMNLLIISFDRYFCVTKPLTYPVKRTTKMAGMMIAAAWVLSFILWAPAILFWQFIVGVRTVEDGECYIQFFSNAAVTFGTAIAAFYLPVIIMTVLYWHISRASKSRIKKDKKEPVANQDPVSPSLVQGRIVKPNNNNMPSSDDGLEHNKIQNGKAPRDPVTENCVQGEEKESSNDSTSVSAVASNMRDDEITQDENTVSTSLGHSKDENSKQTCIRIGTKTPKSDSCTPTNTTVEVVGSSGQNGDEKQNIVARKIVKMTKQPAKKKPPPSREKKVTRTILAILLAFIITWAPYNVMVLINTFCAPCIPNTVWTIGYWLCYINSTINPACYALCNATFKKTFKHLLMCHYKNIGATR
human M1 receptor, sequence (P11229 whole entry): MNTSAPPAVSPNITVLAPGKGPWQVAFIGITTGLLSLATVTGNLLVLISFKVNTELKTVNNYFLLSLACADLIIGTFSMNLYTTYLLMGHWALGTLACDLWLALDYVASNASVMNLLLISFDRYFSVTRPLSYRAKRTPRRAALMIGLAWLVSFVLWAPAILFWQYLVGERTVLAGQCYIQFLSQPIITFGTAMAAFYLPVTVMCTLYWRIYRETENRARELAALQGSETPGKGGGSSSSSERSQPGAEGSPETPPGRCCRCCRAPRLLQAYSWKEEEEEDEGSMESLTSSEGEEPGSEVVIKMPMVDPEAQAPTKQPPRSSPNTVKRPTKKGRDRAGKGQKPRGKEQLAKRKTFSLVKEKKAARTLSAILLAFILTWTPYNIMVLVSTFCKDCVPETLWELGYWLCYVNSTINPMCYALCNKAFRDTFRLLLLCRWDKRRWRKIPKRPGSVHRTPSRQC
human M4 receptor, sequence (P08173 whole entry): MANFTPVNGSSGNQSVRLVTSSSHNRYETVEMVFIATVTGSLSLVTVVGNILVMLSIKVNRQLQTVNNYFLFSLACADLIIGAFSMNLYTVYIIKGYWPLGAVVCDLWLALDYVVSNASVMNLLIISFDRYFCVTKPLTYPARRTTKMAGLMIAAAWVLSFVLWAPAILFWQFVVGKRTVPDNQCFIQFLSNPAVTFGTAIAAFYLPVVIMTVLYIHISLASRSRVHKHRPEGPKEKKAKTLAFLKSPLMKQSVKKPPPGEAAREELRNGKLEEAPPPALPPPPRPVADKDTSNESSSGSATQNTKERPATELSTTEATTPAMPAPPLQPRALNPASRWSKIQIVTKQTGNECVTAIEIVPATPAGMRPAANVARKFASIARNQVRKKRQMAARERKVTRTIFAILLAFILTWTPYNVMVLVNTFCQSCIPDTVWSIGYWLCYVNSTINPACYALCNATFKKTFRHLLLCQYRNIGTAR
human M5 receptor, sequence (P08912 whole entry): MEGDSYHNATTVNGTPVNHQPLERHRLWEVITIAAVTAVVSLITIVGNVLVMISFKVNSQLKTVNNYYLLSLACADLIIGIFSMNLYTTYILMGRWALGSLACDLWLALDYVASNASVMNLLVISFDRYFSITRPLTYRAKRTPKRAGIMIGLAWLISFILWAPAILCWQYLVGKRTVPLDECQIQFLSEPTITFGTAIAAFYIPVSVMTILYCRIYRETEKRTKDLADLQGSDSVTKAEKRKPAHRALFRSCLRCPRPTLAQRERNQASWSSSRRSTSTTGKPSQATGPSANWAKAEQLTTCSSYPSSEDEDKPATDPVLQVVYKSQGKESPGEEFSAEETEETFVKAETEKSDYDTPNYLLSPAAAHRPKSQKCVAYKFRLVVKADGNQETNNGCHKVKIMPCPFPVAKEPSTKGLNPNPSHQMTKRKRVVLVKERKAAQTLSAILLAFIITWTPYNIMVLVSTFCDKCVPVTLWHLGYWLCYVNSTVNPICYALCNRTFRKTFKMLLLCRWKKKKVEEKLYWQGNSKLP

C[C@@H]1CN(c2ccc(F)c(C(F)F)c2)CCN1C(=O)NCCC1CCN(Cc2ccccc2)CC1 [7-9, (2R)-N-[2-(1-benzylpiperidin-4-yl)ethyl]-4-[3-(difluoromethyl)-4-fluorophenyl]-2-methylpiperazine-1-carboxamide]
Ki (human M5 receptor): > 1000 nM | Ki (human M2 receptor): 100 to 1000 nM | Ki (human M1 receptor): 100 to 1000 nM | Ki (human M3 receptor): > 1000 nM | Ki (human M4 receptor): < 10 nM

C[C@@H]1CN(c2nccc(C(F)(F)F)n2)CCN1C(=O)NCCC1CCN(Cc2ccccc2)CC1 [5-8, (2R)-N-[2-(1-benzylpiperidin-4-yl)ethyl]-2-methyl-4-[4-(trifluoromethyl)pyrimidin-2-yl]piperazine-1-carboxamide]
Ki (human M5 receptor): > 1000 nM | Ki (human M2 receptor): 10 to 100 nM | Ki (human M1 receptor): > 1000 nM | Ki (human M3 receptor): 100 to 1000 nM | Ki (human M4 receptor): < 10 nM

O=C(NCCC1CCN(Cc2ccccc2)CC1)N1CCN(c2cnc(C(F)(F)F)cn2)CC1 [22-25, N-[2-(1-benzylpiperidin-4-yl)ethyl]-4-[5-(trifluoromethyl)pyrazin-2-yl]piperazine-1-carboxamide]
Ki (human M5 receptor): > 1000 nM | Ki (human M2 receptor): 10 to 100 nM | Ki (human M1 receptor): > 1000 nM | Ki (human M3 receptor): > 1000 nM | Ki (human M4 receptor): < 10 nM

C[C@@H]1CN(c2cc(F)c(F)c(F)c2)CCN1C(=O)NC[C@H](O)C1CCN(Cc2ccccc2)CC1 [3-16, (2R)-N-[(2R)-2-(1-benzylpiperidin-4-yl)-2-hydroxyethyl]-2-methyl-4-(3,4,5-trifluorophenyl)piperazine-1-carboxamide]
Ki (human M5 receptor): > 1000 nM | Ki (human M2 receptor): > 1000 nM | Ki (human M1 receptor): > 1000 nM | Ki (human M3 receptor): > 1000 nM | Ki (human M4 receptor): < 10 nM

Cc1cc(N2CCC(C(=O)NCCC3CCN(Cc4ccccc4)CC3)CC2)ccc1OC(F)(F)F [10-56, N-[2-(1-benzylpiperidin-4-yl)ethyl]-1-[3-methyl-4-(trifluoromethoxy)phenyl]piperidine-4-carboxamide]
Ki (human M5 receptor): > 1000 nM | Ki (human M2 receptor): 10 to 100 nM | Ki (human M1 receptor): 100 to 1000 nM | Ki (human M3 receptor): 100 to 1000 nM | Ki (human M4 receptor): < 10 nM

O=C(NCCC1CCN(Cc2ccccc2)CC1)C1CCN(c2cc(F)c(F)c(F)c2)CC1 [10-43, N-[2-(1-benzylpiperidin-4-yl)ethyl]-1-(3,4,5-trifluorophenyl)piperidine-4-carboxamide]
Ki (human M2 receptor): 100 to 1000 nM

C[C@@H]1CN(c2cc(F)cc(F)c2)CCN1C(=O)NCCC1CCN(Cc2ccccc2)CC1 [4-72, (2R)-N-[2-(1-benzylpiperidin-4-yl)ethyl]-4-(3,5-difluorophenyl)-2-methylpiperazine-1-carboxamide]
Ki (human M5 receptor): > 1000 nM | Ki (human M2 receptor): 100 to 1000 nM | Ki (human M1 receptor): 100 to 1000 nM | Ki (human M4 receptor): < 10 nM

O=C(NCCC1CCN(Cc2ccccc2)CC1)C1CCN(c2ccc(OC(F)(F)F)c(F)c2)CC1 [10-44, N-[2-(1-benzylpiperidin-4-yl)ethyl]-1-[3-fluoro-4-(trifluoromethoxy)phenyl]piperidine-4-carboxamide]
Ki (human M2 receptor): 100 to 1000 nM

C[C@@H]1CN(c2ncc(C(F)(F)F)c(N)n2)CCN1C(=O)NCCC1CCN(Cc2ccccc2)CC1 [21-16, (2R)-4-[4-amino-5-(trifluoromethyl)pyrimidin-2-yl]-2-methyl-N-(2-{1-[α,α-^2H-benzyl]piperidin-4-yl}ethyl)piperazine-1-carboxamide]
Ki (human M5 receptor): 100 to 1000 nM | Ki (human M2 receptor): < 10 nM | Ki (human M3 receptor): 10 to 100 nM | Ki (human M4 receptor): < 10 nM

O=C(NCCC1CCN(Cc2ccccc2)CC1)c1ccc(-c2ccc(OC(F)(F)F)cc2)cc1 [9-70, N-[2-(1-benzylpiperidin-4-yl)ethyl]-4-[4-(trifluoromethoxy)phenyl]benzamide]
Ki (human M2 receptor): 100 to 1000 nM | Ki (human M1 receptor): 100 to 1000 nM

C[C@@H]1CN(c2ncc(C#N)cn2)C[C@H](C)N1C(=O)NCCC1CCN(Cc2ccccc2)CC1 [21-2, (2R,6S)-4-(5-cyanopyrimidin-2-yl)-2,6-dimethyl-N-(2-{1-[α,α-^2H-benzyl]piperidin-4-yl}ethyl)piperazine-1-carboxamide]
Ki (human M5 receptor): > 1000 nM | Ki (human M1 receptor): > 1000 nM | Ki (human M3 receptor): > 1000 nM | Ki (human M4 receptor): < 10 nM

O=C(NCC(O)C1CCN(Cc2ccccc2)CC1)C1CCN(c2ccc(OC(F)(F)F)cc2)CC1 (stereo not shown) [9-71, N-[2-(1-benzylpiperidin-4-yl)-2-hydroxyethyl]-1-[4-(trifluoromethoxy)phenyl]piperidine-4-carboxamide]
Ki (human M2 receptor): 100 to 1000 nM

C[C@@H]1CN(c2ncc(C#N)c(N)n2)C[C@H](C)N1C(=O)NCCC1CCN(Cc2ccccc2)CC1 [4-54, (2S,6R)-4-(4-amino-5-cyanopyrimidin-2-yl)-N-[2-(1-benzylpiperidin-4-yl)ethyl]-2,6-dimethylpiperazine-1-carboxamide]
Ki (human M5 receptor): > 1000 nM | Ki (human M2 receptor): 100 to 1000 nM | Ki (human M1 receptor): 100 to 1000 nM | Ki (human M3 receptor): > 1000 nM

C[C@@H]1CN(c2cccc(OC(F)(F)F)c2)CCN1C(=O)NCCC1CCN(Cc2ccccc2)CC1 [4-16, (2R)-N-[2-(1-benzylpiperidin-4-yl)ethyl]-2-methyl-4-[3-(trifluoromethoxy)phenyl]piperazine-1-carboxamide]
Ki (human M5 receptor): > 1000 nM | Ki (human M2 receptor): 100 to 1000 nM | Ki (human M1 receptor): 100 to 1000 nM | Ki (human M4 receptor): < 10 nM

C[C@@H]1CN(c2ncc(C#N)cn2)C[C@H](C)N1C(=O)NCCC1CCN(Cc2ccccc2)CC1 [21-15, (2R,6S)-4-(5-cyanopyrimidin-2-yl)-2,6-dimethyl-N-(2-{1-[α,α-^2H-benzyl]piperidin-4-yl}ethyl)piperazine-1-carboxamide]
Ki (human M5 receptor): > 1000 nM | Ki (human M1 receptor): > 1000 nM | Ki (human M3 receptor): > 1000 nM | Ki (human M4 receptor): < 10 nM

C[C@@H]1CN(c2nccc(C#N)n2)C[C@H](C)N1C(=O)NCCC1CCN(Cc2ccccc2)CC1 [4-14, (2S,6R)-N-[2-(1-benzylpiperidin-4-yl)ethyl]-4-(4-cyanopyrimidin-2-yl)-2,6-dimethylpiperazine-1-carboxamide]
Ki (human M5 receptor): > 1000 nM | Ki (human M2 receptor): 100 to 1000 nM | Ki (human M1 receptor): > 1000 nM | Ki (human M4 receptor): < 10 nM

C[C@@H]1CN(c2ccc3c(c2)OC(F)(F)O3)CCN1C(=O)NCCC1CCN(Cc2ccccc2)CC1 [4-6, (2R)-N-[2-(1-benzylpiperidin-4-yl)ethyl]-4-(2,2-difluoro-2H-1,3-benzodioxol-5-yl)-2-methylpiperazine-1-carboxamide]
Ki (human M5 receptor): > 1000 nM | Ki (human M2 receptor): 10 to 100 nM | Ki (human M1 receptor): 100 to 1000 nM | Ki (human M4 receptor): < 10 nM

C[C@@H]1CN(c2ncc(C(F)(F)F)c(N)n2)CCN1C(=O)NCCC1CCN(Cc2ccccc2)CC1 [21-17, (2R)-4-[4-amino-5-(trifluoromethyl)pyrimidin-2-yl]-2-methyl-N-(2-{1-[α,α-^2H-benzyl]piperidin-4-yl}ethyl)piperazine-1-carboxamide]
Ki (human M5 receptor): 100 to 1000 nM | Ki (human M2 receptor): < 10 nM | Ki (human M3 receptor): 10 to 100 nM | Ki (human M4 receptor): < 10 nM

C[C@@H]1CN(c2ncc(C#N)c(N)n2)C[C@H](C)N1C(=O)NCCC1CCN(Cc2ccccc2)CC1 [5-14, (2S,6R)-4-(4-amino-5-cyanopyrimidin-2-yl)-N-[2-(1-benzylpiperidin-4-yl)ethyl]-2,6-dimethylpiperazine-1-carboxamide]
Ki (human M2 receptor): 100 to 1000 nM | Ki (human M1 receptor): 100 to 1000 nM | Ki (human M4 receptor): < 10 nM

C[C@@H]1CN(c2ncc(C(F)(F)F)cn2)CCN1C(=O)NCCC1CCN(Cc2ccccc2)CC1 [21-14, (2R)-2-methyl-N-(2-{1-[α,α-^2H-benzyl]piperidin-4-yl}ethyl)-4-[5-(trifluoromethyl)pyrimidin-2-yl]piperazine-1-carboxamide]
Ki (human M3 receptor): 100 to 1000 nM

CC1CN(c2ccc(OC(F)(F)F)cc2)CCC1C(=O)NCCC1CCN(Cc2ccccc2)CC1 (stereo not shown) [10-42, N-[2-(1-benzylpiperidin-4-yl)ethyl]-3-methyl-1-[4-(trifluoromethoxy)phenyl]piperidine-4-carboxamide]
Ki (human M2 receptor): 100 to 1000 nM | Ki (human M1 receptor): 100 to 1000 nM

O=C(NCCC1(O)CCN(Cc2ccccc2)CC1)C1CCN(c2ccc(OC(F)(F)F)c(F)c2)CC1 [9-72, N-[2-(1-benzyl-4-hydroxypiperidin-4-yl)ethyl]-1-[3-fluoro-4-(trifluoromethoxy)phenyl]piperidine-4-carboxamide]
Ki (human M2 receptor): 100 to 1000 nM | Ki (human M1 receptor): 100 to 1000 nM

Cc1cc(C(=O)NCC(C)C)nc(N2CCN(C(=O)NCCC3CCN(Cc4ccccc4)CC3)[C@H](C)C2)n1 [27-11]
Ki (human M4 receptor): 10 to 100 nM

N#Cc1ccc(N2CCC(C(=O)NCCC3CCN(CC4CCCCC4)CC3)CC2)nc1 [11-8, 1-(5-cyanopyridin-2-yl)-N-{2-[1-(cyclohexylmethyl)piperidin-4-yl]ethyl}piperidine-4-carboxamide]
Ki (human M4 receptor): 100 to 1000 nM
